Columns and labels:
[1] = target: T1, human cloned 5-HT2A receptor, expressed in L929 cells (Homo sapiens, UniProt P28223); test: In vitro radioligand binding affinity for 5-HT2A receptor ([125I]R91150); details: read-out: h-5HT2A (converted)
T1 construct: expressed in transfected cells; host or cells: L929 cells
Protocol: (§1) In vitro Binding Affinity for 5-HT2A and 5-HT2C Receptors
The interaction of the compounds of Formula (I) with 5-HT2A and 5-HT2C receptors was assessed in in vitro radioligand binding experiments. In general, a low concentration of a radioligand with a high binding affinity for the receptor is incubated with a sample of a tissue preparation enriched in a particular receptor (1 to 5 mg tissue) in a buffered medium (0.2 to 5 ml). During the incubation, the radioligands bind to the receptor. When equilibrium of binding is reached, the receptor bound radioactivity is separated from the non-bound radioactivity, and the receptor bound activity is counted. The interaction of the test compounds with the receptors is assessed in competition binding experiments. Various concentrations of the test compound are added to the incubation mixture containing the tissue preparation and the radioligand. Binding of the radioligand will be inhibited by the test compound in proportion to its binding affinity and its concentration. The affinities of the compounds for the 5-HT2 receptors were measured by means of radioligand binding studies conducted with: (a) human cloned 5-HT2A receptor, expressed in L929 cells using [^125I]R91150 as radioligand and (b) human cloned 5-HT2C receptor, expressed in CHO cells using [^3H]mesulergine as radioligand.

[2] = target: T2, human cloned 5-HT2C receptor, expressed in CHO cells (Homo sapiens, UniProt P28335); test: In vitro radioligand binding affinity for 5-HT2C receptor ([3H]mesulergine)
T2 construct: expressed in transfected cells; host or cells: CHO cells
T2 sequence (P28335 33-458): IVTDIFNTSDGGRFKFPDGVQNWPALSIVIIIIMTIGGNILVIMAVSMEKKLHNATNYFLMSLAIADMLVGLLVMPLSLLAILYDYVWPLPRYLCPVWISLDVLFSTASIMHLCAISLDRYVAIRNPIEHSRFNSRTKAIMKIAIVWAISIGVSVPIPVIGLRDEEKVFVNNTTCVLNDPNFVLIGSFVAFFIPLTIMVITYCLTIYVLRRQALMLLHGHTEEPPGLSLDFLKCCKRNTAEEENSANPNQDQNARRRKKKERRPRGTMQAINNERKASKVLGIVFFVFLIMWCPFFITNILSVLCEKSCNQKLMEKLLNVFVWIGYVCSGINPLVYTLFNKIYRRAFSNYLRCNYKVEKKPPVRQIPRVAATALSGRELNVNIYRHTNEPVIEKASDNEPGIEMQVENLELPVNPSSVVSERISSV
Protocol: as §1
The interaction of the compounds of Formula (I) with 5-HT2A and 5-HT2C receptors was assessed in in vitro radioligand binding experiments. […] During the incubation, the radioligands bind to the receptor. When equilibrium of binding is reached, the receptor bound radioactivity is separated from the non-bound radioactivity, and the receptor bound activity is counted. The interaction of the test compounds with the receptors is assessed in competition binding experiments. Various concentrations of the test compound are added to the incubation mixture containing the tissue preparation and the radioligand. Binding of the radioligand will be inhibited by the test compound in proportion to its binding affinity and its concentration.

[3] = target: T3, human Dopamine D2L receptor (Homo sapiens, UniProt P14416); test: In vitro binding affinity for human D2L receptor ([3H]Spiperone); details: human D2L receptor-transfected CHO cell membranes
T3 construct: expressed in transfected cells; host or cells: CHO cells
T3 sequence (P14416 whole entry): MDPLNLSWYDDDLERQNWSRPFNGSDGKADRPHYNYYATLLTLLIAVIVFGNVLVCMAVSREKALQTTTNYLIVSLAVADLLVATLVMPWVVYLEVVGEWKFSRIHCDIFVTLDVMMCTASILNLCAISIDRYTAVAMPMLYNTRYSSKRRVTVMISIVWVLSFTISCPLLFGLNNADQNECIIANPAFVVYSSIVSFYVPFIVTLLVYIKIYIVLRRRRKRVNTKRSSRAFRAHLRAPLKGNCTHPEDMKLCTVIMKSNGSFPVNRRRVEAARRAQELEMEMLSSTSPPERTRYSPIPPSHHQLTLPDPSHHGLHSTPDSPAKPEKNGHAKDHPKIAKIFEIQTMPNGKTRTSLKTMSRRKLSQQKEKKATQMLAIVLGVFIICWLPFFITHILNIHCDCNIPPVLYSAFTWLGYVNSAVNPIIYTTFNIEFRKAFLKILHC
Protocol: In vitro Binding Affinity for Human D2L Receptor
Frozen membranes of human Dopamine D2L receptor-transfected CHO cells were thawed, briefly homogenised using an Ultra-Turrax T25 homogeniser and diluted in Tris-HCl assay buffer containing NaCl, CaCl2, MgCl2, KCl (50, 120, 2, 1, and 5 mM respectively, adjusted to pH 7.7 with HCl) to an appropriate protein concentration optimised for specific and non-specific binding. Radioligand [^3H]Spiperone (NEN, specific activity ˜70 Ci/mmol) was diluted in assay buffer at a concentration of 2 nmol/L. Prepared radioligand (50 μl), along with 50 μl of either the 10% DMSO control, Butaclamol (10^−6 mol/l final concentration), or compound of interest, was then incubated (30 min, 37° C.) with 400 μl of the prepared membrane solution. Membrane-bound activity was filtered through a Packard Filtermate harvester onto GF/B Unifilterplates and washed with ice-cold Tris-HCl buffer (50 mM; pH 7.7; 6×0.5 ml). Filters were allowed to dry before adding scintillation fluid and counting in a Topcount scintillation counter. Percentage specific bound and competition binding curves were calculated using S-Plus software (Insightful).

NET = target: T4, NET (Rattus norvegicus, UniProt Q63380); test: In vitro determination of NET reuptake inhibition ([3H]Nixosetine binding, rat brain cortex membranes)
T4 construct: Cortex from rat brain was collected and homogenised; from tissue; host or cells: rat brain cortex homogenate/membranes
T4 sequence (Q63380 1-617): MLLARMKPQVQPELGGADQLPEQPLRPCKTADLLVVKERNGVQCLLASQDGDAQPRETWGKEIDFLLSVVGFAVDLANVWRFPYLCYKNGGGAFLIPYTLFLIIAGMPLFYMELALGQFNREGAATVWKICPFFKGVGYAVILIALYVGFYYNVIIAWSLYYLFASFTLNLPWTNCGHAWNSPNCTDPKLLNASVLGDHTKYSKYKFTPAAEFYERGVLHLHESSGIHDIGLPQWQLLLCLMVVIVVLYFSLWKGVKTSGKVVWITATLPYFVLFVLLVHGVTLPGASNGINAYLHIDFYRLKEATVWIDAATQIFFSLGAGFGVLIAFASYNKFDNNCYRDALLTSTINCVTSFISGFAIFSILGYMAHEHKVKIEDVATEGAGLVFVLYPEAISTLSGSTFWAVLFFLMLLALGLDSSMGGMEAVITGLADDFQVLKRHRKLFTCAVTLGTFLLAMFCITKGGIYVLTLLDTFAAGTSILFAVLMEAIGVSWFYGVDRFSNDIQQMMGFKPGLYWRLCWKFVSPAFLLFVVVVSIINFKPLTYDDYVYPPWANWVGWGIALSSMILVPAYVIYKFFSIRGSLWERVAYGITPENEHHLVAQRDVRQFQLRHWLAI
Protocol: In vitro Determination of NET Reuptake Inhibition
Cortex from rat brain was collected and homogenised using an Ultra-Turrax T25 and a Dual homogeniser in ice-cold homogenising buffer containing Tris, NaCl and KCl (50 mM, 120 mM and 5 mM, respectively, pH 7.4) prior to dilution to an appropriate protein concentration optimised for specific and non-specific binding. […] Membrane-bound activity was detected by filtration through a Packard Filtermate harvester onto GF/B Unifilterplates, washed with ice-cold Tris-HCl buffer, containing NaCl and KCl (50 mM, 120 mM and 4 mM; pH 7.4; 6×0.5 ml). Filters were allowed to dry for 24 h before adding scintillation fluid. Scintillation fluid was allowed to saturate filters for 24 h before counting in a Topcount scintillation counter. Percentage specific bound and competition binding curves were calculated using S-Plus software (Insightful).

T1 sequence (P28223 whole entry): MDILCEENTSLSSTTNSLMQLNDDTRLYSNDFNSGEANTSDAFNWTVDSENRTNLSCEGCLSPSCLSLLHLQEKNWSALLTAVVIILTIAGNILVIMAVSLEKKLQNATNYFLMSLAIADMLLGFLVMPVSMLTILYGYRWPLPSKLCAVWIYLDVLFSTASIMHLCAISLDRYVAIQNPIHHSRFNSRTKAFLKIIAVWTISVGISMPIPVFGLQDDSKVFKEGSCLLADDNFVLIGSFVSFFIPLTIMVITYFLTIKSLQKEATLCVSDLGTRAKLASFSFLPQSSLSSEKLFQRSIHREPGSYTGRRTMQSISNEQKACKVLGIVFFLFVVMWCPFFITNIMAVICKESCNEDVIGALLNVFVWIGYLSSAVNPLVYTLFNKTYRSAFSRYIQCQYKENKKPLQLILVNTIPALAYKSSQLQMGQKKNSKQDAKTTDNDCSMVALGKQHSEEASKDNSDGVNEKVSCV

## CN(C)C[C@H]1C[C@@H]2c3ccccc3Cc3ccc(F)cc3[C@H]2N1C=O [36c, (2R,3aR,12bS)-2-[(dimethylamino)methyl]-11-fluoro-3,3a,8,12b-tetrahydrodibenzo[3,4:6,7]cyclohepta[1,2-b]pyrrole-1(2H)-carbaldehyde]
[1]
  IC50: 550 nM
[2]
  IC50: 77.6 nM
[3]
  IC50: 4900 nM
NET
  IC50: 224 nM

## CN(CCO)C[C@H]1C[C@@H]2c3ccccc3Cc3ccc(F)cc3[C@H]2N1 [43b, 2-[{[(2R,3aR,12bS)-11-fluoro-1,2,3,3a,8,12b-hexahydrodibenzo[3,4:6,7]-cyclohepta[1,2-b]pyrrol-2-yl]methyl}(methyl)amino]-ethanol]
[1]
  IC50: 67.6 nM
[2]
  IC50: 89.1 nM
[3]
  IC50: 437 nM
NET
  IC50: 15.8 nM

## Fc1ccc2c(c1)[C@@H]1[C@H](C[C@@H]3CNC(=S)N31)c1ccccc1C2 [compound 8, (4aS,13bR,14aR)-6-fluoro-1,4a,9,13b,14,14a-hexahydrodibenzo[3′,4′:6′,7′]-cyclohepta[1′,2′:4,5]pyrrolo[1,2-c]imidazole-3(2H)-thione]
NET
  NET Reuptake Inhibition: 5.66
other
  melting point: 150 to 151 °C

## CN[C@@H]1CO[C@@H]2c3cc(F)ccc3Cc3ccccc3[C@H]2C1 (relative stereo) [compound 35, (3S *,4aR*,13bS*)-12-fluoro-N-methyl-2,3,4,4a,9,13b-hexahydrodibenzo[3,4:6,7]-cyclohepta[1,2-b]pyran-3-amine]
[1]
  IC50: > 1000 nM
[3]
  IC50: > 1000 nM
NET
  IC50: > 1000 nM

## N[C@@H]1CO[C@H]2c3cc(F)ccc3Cc3ccccc3[C@H]2C1 [compound 30, (3S,4aR,13bR)-12-fluoro-2,3,4,4a,9,13b-hexahydrodibenzo[3,4:6,7]cyclohepta-[1,2-b]pyran-3-amine]
NET
  IC50: 302 nM
other
  melting point: 74 to 76 °C

## COC(=O)N1[C@@H](CN(C)C)C[C@@H]2c3ccccc3Cc3ccc(F)cc3[C@H]21 [36a, Methyl(2R,3aR,12bS)-2-[(dimethylamino)methyl]-11-fluoro-3,3a,8,12b-tetrahydro-dibenzo[3,4:6,7]cyclohepta[1,2-b]pyrrole-1(2H)-carboxylate]
[1]
  IC50: > 1000 nM
[2]
  IC50: > 1000 nM
[3]
  IC50: > 1000 nM
NET
  IC50: 692 nM
